Article PMC5681922, “Systemic Responses of Multidrug-Resistant Pseudomonas aeruginosa and Acinetobacter baumannii Following Exposure to the Antimicrobial Peptide Cathelicidin-BF Imply Multiple Intracellular Targets” (Frontiers in Cellular and Infection Microbiology, 2017)
No end group written: not given here.

System: P. aeruginosa 1409
Experiment: Minimal inhibitory concentration (given as multiples of MIC)
Assay type: cell-based, Pseudomonas aeruginosa
Settings: MDR clinical isolate; MIC itself not given, only this multiple

KFFRKLKKSVKKRAKEFFKKPRVIGVSIPF [cathelicidin-BF]
4 × MIC: 32 µg/mL
